# Reference: patent US11478433B2, “Nanomaterials with enhanced drug delivery efficiency” (Yale University, priority 2017, dated 2022)
# Columns and labels:
# [1] = in vivo, cited from earlier work
# [2] = Penetration through GI tract after oral gavage (IVIS, confocal microscopy)
# Protocol: DTA SNPs encapsulating a near-infrared fluorescent dye, IR780, were prepared and administered to mice via oral gavage. After one hour, the GI tract was isolated, extensively washed, and imaged by IVIS®.
# [3] = tested on: human breast cancer MDA-MB-231 cells; experiment: Toxicity on breast cancer cells in vitro; format: cell-based
# Protocol: FIG. 7 is a line graph showing the percentage of growth (%) of human breast cancer MDA-MB-231 cells over different concentrations (μg/mL) of different samples: PTX, DTA SNPs (denoted in this graph as SNPs), PTX-encapsulated DTA SNPs (denoted as PTX-SNPs).
# Human breast adenocarcinoma cell line, MDA-MB-231 cells, were purchased from American Type Culture Collection (ATCC, Rockville, Md., USA). Cells were grown in DMEM medium (Invitrogen) supplemented with 10% fetal bovine serum (FBS, Invitrogen), 100 units/mL penicillin, and 100 µg/mL streptomycin (Invitrogen) in a 37° C. incubator containing 5% CO2.
# MDA-MB-231 tumors = experiment: Oral treatment of mice bearing MDA-MB-231 tumors; format: in vivo; conditions: twice a week
# Protocol: The therapeutic benefit of PTX-loaded DTX SNPs was evaluated for treatment of […]. Mice bearing MDA-MB-231 tumors of ˜50 mm^3 size were treated twice a week with orally injected saline (as a control), empty DTA SNPs, free PTX, or PTX-loaded DTX SNPs (denoted as PTX-SNPs). Tumor volumes were measured three times a week. Mice were euthanized when tumor volume reached ˜1000 mm^3, at which point the tumors were excised and fixed in formalin for immunohistochemistry. Serial sections were obtained and stained with TUNEL for analysis of cellular apoptosis. The growth curve was plotted using the mean of the tumor volumes for each treatment group, at each time point.
# [4] = tested on: MDA-MB-231 flank tumor model; experiment: Intravenous treatment of flank tumor model with PTX-loaded OA SNPs; format: in vivo; conditions: over 30 days following treatment
# Protocol: Next, drug delivery via encapsulation in OA SNPs was assayed in treating the flank tumor model.
molecule,measurement,setting,value
"C[C@@H]1CC[C@H]2[C@@H](C)C(=O)O[C@@H]3O[C@@]4(C)CC[C@@H]1[C@]32OO4 [Artemisinin, artemisinin]",bioavailability,[1],less than 10%
CCCN1/C(=C/C=C2\CCCC(/C=C/C3=[N+](CCC)c4ccccc4C3(C)C)=C2Cl)C(C)(C)c2ccccc21.[I-] [IR780],location in GI tract,"[2]; one hour after oral gavage, IR780, IVIS imaging",located mostly in the stomach
"CC(=O)O[C@H]1C(=O)[C@@]2(C)[C@H]([C@H](OC(=O)c3ccccc3)[C@]3(O)C[C@H](OC(=O)[C@H](O)[C@@H](NC(=O)c4ccccc4)c4ccccc4)C(C)=C1C3(C)C)[C@]1(OC(C)=O)CO[C@@H]1C[C@@H]2O [PTX, paclitaxel]",toxicity on MDA-MB-231 cells,[3],comparable toxicity
same,reduction of tumor volumes compared to saline control,MDA-MB-231 tumors,21%
same,tumor volume / tumor growth,[4],grew substantially
same,oral bioavailability,[1]; po,less than 2%
CCN(CC)c1ccc2c(-c3ccccc3C(=O)O)c3ccc(=[N+](CC)CC)cc-3oc2c1.[Cl-] [rhodamine B],fluorescence in intestinal villi,"[2]; oral administration, confocal microscopy",limited fluorescence
GLP-1,half-life in the circulatory system,[1],< 2 min
